For test [1], the target named is T1, FtsZSa (Staphylococcus aureus, UniProt P0A031).
T1 sequence (P0A031 1-390): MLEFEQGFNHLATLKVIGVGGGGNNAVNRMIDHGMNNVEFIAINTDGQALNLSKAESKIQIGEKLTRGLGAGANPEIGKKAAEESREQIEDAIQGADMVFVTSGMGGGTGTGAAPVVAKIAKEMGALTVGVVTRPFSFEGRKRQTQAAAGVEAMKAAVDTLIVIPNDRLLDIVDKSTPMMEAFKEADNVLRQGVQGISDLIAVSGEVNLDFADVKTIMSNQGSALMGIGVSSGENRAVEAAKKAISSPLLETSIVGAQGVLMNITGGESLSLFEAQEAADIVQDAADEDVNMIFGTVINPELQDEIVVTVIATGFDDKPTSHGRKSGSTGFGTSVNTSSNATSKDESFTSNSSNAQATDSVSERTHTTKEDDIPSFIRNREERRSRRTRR
The test is described as follows: FtsZSa polymerization, 90° light scattering.

For test [2], the system named is S. aureus ATCC25923. The experiment in a line: MIC determination by 2-fold microdilution, resazurin method. Format: cell-based, Staphylococcus aureus. The conditions noted are these: S. aureus ATCC25923, single drug; for MIC: Staphylococcus aureus. On the technique in general: In broth dilution the organism is exposed to a series of concentrations in liquid medium.

In test [3] the test system is S. aureus ATCC25923. The test is described as follows: Checkerboard assay of C11 with antibiotics. The class given is cell-based. To be noted: antibiotic combined with C11.
For test [4], the system named is mammalian tubulin. The experiment in a line: Tubulin polymerization assay, fluorescence based. The class given is biochemical. To be noted: 10 μM; DMSO control 3.78.
The test system of test [5] is S. aureus. To be noted: cited from earlier work.
Test [6] addresses T2, S. aureus FtsZ protein (FtsZSa) (Staphylococcus aureus, UniProt P0A031).
T2 construct: made in house; host or cells: Escherichia coli BL21DE3
T2 sequence (P0A031 1-390): T1 sequence (P0A031 1-390)
The experiment in a line: In vitro FtsZ GTPase activity (PK/LDH coupled assay). Format: biochemical. Details: Residual GTPase activity: concentration or dose not given beside the values. The conditions noted are these: S. aureus FtsZ protein. The method, then:
In vitro FtsZ GTPase activity
FtsZSa and FtsZPa were expressed and purified as previously described.13,14 GTPase activity was assayed at 30°C using a pyruvate kinase–L-lactic dehydrogenase (PK/LDH) spectrophotometric coupled assay, as previously described15 with minor modification. The reaction mixture was first set up to contain 50 mM MES […]
phosphoenolpyruvate, and 4.8 μM of FtsZ. The assay was initiated by the addition of 1 mM GTP. The experiments were performed in triplicate. The inhibitory concentration that reduced the enzymatic activity by half (IC50) was determined using Prism 10. […]

The target in test [7] is T1, FtsZSa. The experiment in a line: FtsZSa polymerization, sedimentation assay. To be noted: sedimentation assay of C11 derivatives.
The test system of test [8] is S. aureus cystic fibrosis clinical isolates. The test is described as follows: MIC for CF clinical isolates. Format: cell-based.
For test [9], the system named is Mycobacterium tuberculosis. Details: method as in PMID 21126020. The conditions noted are these: cited from earlier work.

Converted amounts (≈) assume the structure as drawn. Read-outs that look alike come from different tables or passages of the source.

By IC50 is commonly meant the concentration needed to halve the response being measured. By MIC is commonly meant the lowest concentration that inhibits growth of the organism. In [1], `O=S1(=O)N=C(Nc2nc(-c3ccccc3)cs2)c2ccccc21` [C11.5] gave an IC50 of 34.6 µM. Also, in test [2], the “MIC S. aureus” value was not below 128 µg/mL and the minimum inhibitory concentration (MIC) was not below 128 µg/mL.
On to `O=C(CSc1nnc(NC2=NS(=O)(=O)c3ccccc32)s1)Nc1ccc(Cl)cc1` [C11.10], for which, in [2], the MIC is not below 128 µg/mL.
For the molecule `CN(C)[C@@H]1C(O)=C(C(N)=O)C(=O)[C@@]2(O)C(O)=C3C(=O)c4c(O)cccc4[C@@](C)(O)[C@H]3C[C@@H]12` [Tetracycline, reference compound], the “Effect of the combination with C11” value in test [3] is on record as “additive effect”. For the same molecule, the MIC in test [2] amounted to 0.5 µg/mL (≈ 1.13 µM).
On to `O=S1(=O)C=C(Sc2nnc(-c3ccccc3)o2)c2ccccc21` [C11.2], for which, in [1], the 50% inhibitory concentration (IC50) came out at 23.7 µM. Moreover, the minimal inhibitory concentration (MIC) in [2] was 8 µg/mL (≈ 23.4 µM).
For the molecule `CC(=O)O[C@H]1C(=O)[C@@]2(C)[C@H]([C@H](OC(=O)c3ccccc3)[C@]3(O)C[C@H](OC(=O)[C@H](O)[C@@H](NC(=O)c4ccccc4)c4ccccc4)C(C)=C1C3(C)C)[C@]1(OC(C)=O)CO[C@@H]1C[C@@H]2O` [Paclitaxel, paclitaxel, reference compound], the “Vmax of tubulin polymerization” value in [4] came out at 21.45 mOD/min.
`CCOc1ccc(NC(=O)CN2C(=O)c3ccccc3S2(=O)=O)cc1` [C11.4]: the IC50 in test [1] turned out to be 41.9 µM. The same molecule displayed a minimal inhibitory concentration (MIC) in test [2] not below 128 µg/mL.
For `CC(C)(O/N=C(\C(=O)N[C@@H]1C(=O)N2C(C(=O)[O-])=C(C[n+]3ccccc3)CS[C@H]12)c1csc(N)n1)C(=O)O` [Ceftazidime, reference compound], the “Effect of the combination with C11” value in test [3] is reported as “synergistic effect”. Besides, 16 µg/mL (≈ 29.3 µM) was the least that counted as inhibitory in test [2] (MIC).
For `CN1CCC(C(=O)NC(=O)c2c(F)ccc(OCc3nc4cc(C(F)(F)F)cnc4s3)c2F)CC1` [TX709], in [5] (ref 19−22), the “MIC S. aureus” value was 2 to 4 µg/mL.
On to `O=C(CN1C(=O)c2ccccc2S1(=O)=O)Nc1nc(-c2ccccc2)cs1` [C11.12], for which the MIC in test [2] is not below 128 µg/mL.
As for `COC(=O)c1ccc(CSc2ccc(-c3ccc4c(c3)OCO4)nn2)o1` [C1], in test [6], the “Residual GTPase activity” value is recorded as 78.5%. Moreover, the “MIC S. aureus” value in test [2] is not below 256 µg/mL.
As to `CO[C@H]1/C=C/O[C@@]2(C)Oc3c(C)c(O)c4c(O)c(c(/C=N/N5CCN(C)CC5)c(O)c4c3C2=O)NC(=O)/C(C)=C\C=C\[C@H](C)[C@H](O)[C@@H](C)[C@@H](O)[C@@H](C)[C@H](OC(C)=O)[C@@H]1C` [Rifampicin, reference compound], the “Effect of the combination with C11” value in test [3] was “synergistic effect”. The MIC in test [2] was 0.03 µg/mL (≈ 0.0365 µM).
For `Cc1ccc(-c2nnc(SC3=CS(=O)(=O)c4ccccc43)o2)cc1` [C11.11], in [2], the minimal inhibitory concentration (MIC) was not below 128 µg/mL.
Regarding `Cc1occc1-c1nnc(SC2=CS(=O)(=O)c3ccccc32)o1` [C11.8], the IC50 in [1] amounted to 41.6 µM. The minimum inhibitory concentration (MIC) in test [2] is 128 µg/mL (≈ 370 µM).
In turn, `O=C(Oc1ccc(NC2=NS(=O)(=O)c3ccccc32)cc1)c1ccccc1` [C11.1] displayed an IC50 in [1] of 71.7 µM. Also, in test [7], the “Activity on FtsZSa polymerization” value was “mild activity”. This molecule returned an MIC in test [2] not below 128 µg/mL.
With `COc1ccccc1-c1cc(C(=O)NCC(N)=O)[nH]n1` [C5], in [6], the “Residual GTPase activity” value turned out to be 95.3%. Besides, in [2], the “MIC S. aureus” value is not below 256 µg/mL.
Consider `C[C@@H](O)[C@H]1C(=O)N2C(C(=O)O)=C(S[C@@H]3CN[C@H](C(=O)N(C)C)C3)[C@H](C)[C@H]12` [Meropenem, reference compound], for which the minimum inhibitory concentration (MIC) in test [8] (S. aureus BG8 MRSA, single drug) came to 2 µg/mL (≈ 5.22 µM); in test [8] (S. aureus BG10 MRSA, single drug), 16 µg/mL (≈ 41.7 µM); in test [8] (Staphylococcus aureus, MRSA, S. aureus BG6 MRSA, read-out: MIC), 4 µg/mL (≈ 10.4 µM); in [8] (Staphylococcus aureus, MRSA, S. aureus BG7 MRSA smv, read-out: MIC) it was 2 µg/mL (≈ 5.22 µM); in test [8] (Staphylococcus aureus, MRSA, S. aureus BG8 MRSA, single drug, read-out: MIC), 2 µg/mL (≈ 5.22 µM); in test [8] (Staphylococcus aureus, MRSA, S. aureus BG10 MRSA, single drug, read-out: MIC), 16 µg/mL (≈ 41.7 µM). Besides, the minimal inhibitory concentration (MIC) was found to be 0.5 µg/mL (≈ 1.3 µM) in [8] (Staphylococcus aureus, S. aureus BG1, read-out: MIC); 0.5 µg/mL (≈ 1.3 µM) in test [8] (Staphylococcus aureus, S. aureus BG2, read-out: MIC); 0.25 µg/mL (≈ 0.652 µM) in test [8] (Staphylococcus aureus, S. aureus BG3, read-out: MIC); 0.25 µg/mL (≈ 0.652 µM) in test [8] (Staphylococcus aureus, S. aureus BG4, read-out: MIC); 0.25 µg/mL (≈ 0.652 µM) in test [8] (Staphylococcus aureus, S. aureus BG5, read-out: MIC); 0.25 µg/mL (≈ 0.652 µM) in test [2]. Further, the “Effect of the combination with C11” value in test [3] is “synergistic effect”.
With `NC(=O)c1c(F)ccc(OCc2nc3cc(C(F)(F)F)cnc3s2)c1F` [TX707], in test [5] (ref 19−22), the “MIC S. aureus” value is 0.25 to 2 µg/mL.
In the case of `CC(=O)NC[C@H]1CN(c2ccc(N3CCOCC3)c(F)c2)C(=O)O1` [Linezolid, reference compound], the “Effect of the combination with C11” value in [3] is “additive effect”. In test [2], the lowest concentration to inhibit growth (MIC) was 2 µg/mL (≈ 5.93 µM).
Turning to Benzimidazole, the “MIC Mtb H3tRv” value in [9] is 0.39 µg/mL.
On to `CCc1sc(NC2=NS(=O)(=O)c3ccccc32)nc1-c1ccccc1` [C11.7], for which, in test [1], the IC50 came to 29.4 µM. Besides, in [2], the “MIC S. aureus” value was 8 µg/mL (≈ 21.7 µM) and the lowest concentration to inhibit growth (MIC) was 8 µg/mL (≈ 21.7 µM).
On to `CC(O)c1ccc(C2(CNC(=O)c3ccc(C(F)(F)F)nc3)CCCC2)s1` (centres unmarked) [C2], for which the “Residual GTPase activity” value in test [6] was 35.5%. Besides, the “MIC S. aureus” value in test [2] was not below 256 µg/mL.
In the case of `O=C(Oc1cc(OC(=O)c2ccc(O)c(Cl)c2)c2ccccc2c1)c1ccc(O)c(Cl)c1` [UCM53], in test [5] (ref 15−17), the “MIC S. aureus” value is 2 to 8 µg/mL.
As to `O=S1(=O)N=C(Nc2nc3c(s2)CCCC3)c2ccccc21` [C11.3], the MIC in [2] was not below 128 µg/mL.
In test [2], `O=C(c1ccco1)N1CCN(C2=NS(=O)(=O)c3ccccc32)CC1` [C11.6] had an MIC not below 128 µg/mL.
On the same count and under the same terms, with `O=S1(=O)N=C(Nc2nnc(SCc3ccccc3Cl)s2)c2ccccc21` [C11.9] the figure was 128 µg/mL (≈ 303 µM).
Turning to `NC(=O)c1cc(OC2CN(C(=O)Nc3ccccc3F)C2)ccn1` [C6], the “Residual GTPase activity” value in [6] stood at 92.8%. In test [2], the “MIC S. aureus” value was not below 256 µg/mL.
As for `COc1ccc(CC(=O)Nc2cccc(C(N)=O)c2)cc1` [C8], in test [6], it took 8.4 µM to reach half-maximal inhibition (IC50) and the “Residual GTPase activity” value is 11.8%. Also, the “MIC S. aureus” value in [2] is not below 256 µg/mL.
On to `Cc1ccc(-c2nnc(Nc3cccc(O)c3)c3ccccc23)cc1S(N)(=O)=O` [C9], for which the “Residual GTPase activity” value in test [6] is given as 34.3%. For the same molecule, in test [2], the “MIC S. aureus” value was not below 256 µg/mL.
Take `CC[C@H]1OC(=O)[C@H](C)[C@@H](O[C@H]2C[C@@](C)(OC)[C@@H](O)[C@H](C)O2)[C@H](C)[C@@H](O[C@@H]2O[C@H](C)C[C@H](N(C)C)[C@H]2O)[C@](C)(O)C[C@@H](C)C(=O)[C@H](C)[C@@H](O)[C@]1(C)O` [Erythromycin, reference compound]: the “Effect of the combination with C11” value in test [3] is “additive effect”. The molecule also showed a minimal inhibitory concentration (MIC) in [2] of 0.5 µg/mL (≈ 0.681 µM).

Values taken from paper PMC11998009, “Identification of a New FtsZ Inhibitor by Virtual Screening, Mechanistic Insights, and Structure–Activity Relationship Analyses” (ACS Infectious Diseases, 2025).
